According to ChEMBL document CHEMBL5046295 (J Med Chem, 2022):
pEC50, pKi: −log10 of the molar value. Active and inactive are the calls of the source. The calls are words filed in the database; no cut-off is given here.

Assays:
Mus musculus [1] = experiment: Antinociceptive activity against Swiss Webster mouse model assessed as increase in tail withdrawal latency from warm water by measuring maximum possible effect at 10 mg/kg, sc measured after 20 min by warm water tail immersion assay; type: functional, organism-based
Mu-type opioid receptor [2] = biological target: T1, Mu-type opioid receptor (Mus musculus, UniProt P42866)
T1 sequence (P42866 whole entry): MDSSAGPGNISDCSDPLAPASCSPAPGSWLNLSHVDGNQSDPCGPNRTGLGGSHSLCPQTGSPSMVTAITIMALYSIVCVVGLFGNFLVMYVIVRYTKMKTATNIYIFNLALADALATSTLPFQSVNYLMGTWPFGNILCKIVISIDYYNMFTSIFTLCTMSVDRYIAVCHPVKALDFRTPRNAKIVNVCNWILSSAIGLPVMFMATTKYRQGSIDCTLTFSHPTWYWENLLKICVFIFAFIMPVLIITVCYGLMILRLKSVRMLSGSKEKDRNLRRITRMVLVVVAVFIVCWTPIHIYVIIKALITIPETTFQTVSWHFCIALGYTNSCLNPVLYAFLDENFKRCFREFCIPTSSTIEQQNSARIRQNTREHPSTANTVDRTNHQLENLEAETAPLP

[3] = biological target: T2, Delta-type opioid receptor (Homo sapiens, UniProt P41143)
T2 sequence (P41143 whole entry): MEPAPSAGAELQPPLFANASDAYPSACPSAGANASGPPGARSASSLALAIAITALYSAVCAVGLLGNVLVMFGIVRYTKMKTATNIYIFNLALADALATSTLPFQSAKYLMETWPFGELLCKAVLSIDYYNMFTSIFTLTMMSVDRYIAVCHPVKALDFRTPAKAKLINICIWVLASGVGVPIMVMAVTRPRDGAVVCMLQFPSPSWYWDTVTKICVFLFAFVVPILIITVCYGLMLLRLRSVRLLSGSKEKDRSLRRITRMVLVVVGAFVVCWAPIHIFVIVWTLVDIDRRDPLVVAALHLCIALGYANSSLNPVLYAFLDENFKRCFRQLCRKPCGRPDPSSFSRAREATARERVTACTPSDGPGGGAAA
Description: Displacement of [3H]-diprenorphine from human delta opioid receptor expressed in CHO cell membranes assessed as inhibition constant incubated for 1.5 hrs by competitive binding assay

Mu-type opioid receptor [4] = biological target: T1, Mu-type opioid receptor; experiment: Partial agonist activity at mouse mu opioid receptor expressed in CHO cell membranes incubated for 1.5 hrs by [35S]GTPgammaS binding based liquid scintillation counting method
Mus musculus [5] = experiment: Antinociceptive activity against Swiss Webster mouse model assessed as increase in tail withdrawal latency from warm water at 10 mg/kg, sc incubated for 5 mins followed by morphine addition and measured after 20 mins by warm water tail immersion assay; type: functional, organism-based
[6] = biological target: T3, Kappa-type opioid receptor (Mus musculus, UniProt P33534)
T3 sequence (P33534 whole entry): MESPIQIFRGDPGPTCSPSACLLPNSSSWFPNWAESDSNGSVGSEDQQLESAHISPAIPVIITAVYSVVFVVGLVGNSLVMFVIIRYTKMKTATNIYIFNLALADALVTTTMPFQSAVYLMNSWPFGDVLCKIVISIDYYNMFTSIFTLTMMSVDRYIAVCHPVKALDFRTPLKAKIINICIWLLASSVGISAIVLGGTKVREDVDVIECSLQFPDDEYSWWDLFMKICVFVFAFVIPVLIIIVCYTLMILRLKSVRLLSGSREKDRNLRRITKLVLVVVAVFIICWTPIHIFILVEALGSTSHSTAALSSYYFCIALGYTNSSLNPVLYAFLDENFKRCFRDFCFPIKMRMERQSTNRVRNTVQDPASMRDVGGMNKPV
Description: Displacement of [3H]-diprenorphine from mouse kappa opioid receptor expressed in CHO cell membranes assessed as inhibition constant incubated for 1.5 hrs by competitive binding assay

[7] = Solubility of the compound in DMSO; type: physicochemical
[8] = biological target: T2, Delta-type opioid receptor; experiment: biochemical
Description: Antagonist activity against human delta opioid receptor expressed in CHO cell membrane assessed as reduction in SNC80 induced [35S]GTPgammaS binding incubated for 1.5 hrs by liquid scintillation counting method

[9] = biological target: T3, Kappa-type opioid receptor; experiment: biochemical
Description: Antagonist activity at mouse kappa opioid receptor expressed in CHO cell membranes assessed as reduction in U50,488H induced [35S]GTPgammaS binding incubated for 1.5 hrs by liquid scintillation counting method

Mus musculus [10] = experiment: Anti-addiction activity in morphine pelleted Swiss Webster mouse assessed as wet dog shakes at 5 mg/kg, sc measured after 72 hrs; type: functional, organism-based
Mus musculus [11] = experiment: Anti-addiction activity in morphine pelleted Swiss Webster mouse assessed as escape jumps at 5 mg/kg, sc measured after 72 hrs; type: functional, organism-based
Mus musculus [12] = experiment: Anti-addiction activity in morphine pelleted Swiss Webster mouse assessed as paw tremors at 5 mg/kg, sc measured after 72 hrs; type: functional, organism-based

SMILES | Activity (Mus musculus [1]) | pKi (Mu-type opioid receptor [2]) | pKi [3] | pEC50 (Mu-type opioid receptor [4]) | Activity (Mus musculus [5]) | pKi [6] | solubility [7] | pEC50 [8] | pEC50 [9] | Activity (Mus musculus [10]) | Activity (Mus musculus [11]) | Activity (Mus musculus [12])
O=C(CCc1cccs1)N[C@@H]1CC[C@@]2(O)[C@H]3Cc4ccc(O)c5c4[C@@]2(CCN3CC2CC2)[C@H]1O5 | Active |  |  |  |  |  |  |  |  |  |  | 
O=C(CCc1cccs1)N[C@H]1CC[C@@]2(O)[C@H]3Cc4ccc(O)c5c4[C@@]2(CCN3CC2CC2)[C@H]1O5 | inactive | 9.32 | 8.65 | 8.51 | inactive | 8.75 |  |  |  |  |  | 
O=C(N[C@H]1CC[C@@]2(O)[C@H]3Cc4ccc(O)c5c4[C@@]2(CCN3CC2CC2)[C@H]1O5)c1ccco1 | inactive | 9.28 | 7.48 | 8.02 | inactive | 8.71 |  |  |  |  |  | 
O=C(N[C@@H]1CC[C@@]2(O)[C@H]3Cc4ccc(O)c5c4[C@@]2(CCN3CC2CC2)[C@H]1O5)c1ccoc1 | Active | 8.07 | 5.70 | 7.46 |  | 7.53 |  |  |  |  |  | 
O=C(CCc1cc[nH]c1)N[C@H]1CC[C@@]2(O)[C@H]3Cc4ccc(O)c5c4[C@@]2(CCN3CC2CC2)[C@H]1O5 | inactive | 9.15 | 8.06 | 8.41 | Active | 9.23 | Insoluble |  |  |  |  | 
O=C(CCc1ccco1)N[C@@H]1CC[C@@]2(O)[C@H]3Cc4ccc(O)c5c4[C@@]2(CCN3CC2CC2)[C@H]1O5 | inactive |  |  |  | inactive |  |  |  |  |  |  | 
O=C(CCc1ccc[nH]1)N[C@H]1CC[C@@]2(O)[C@H]3Cc4ccc(O)c5c4[C@@]2(CCN3CC2CC2)[C@H]1O5 | inactive | 9.24 | 8.12 | 8.42 | inactive | 9.27 |  |  |  |  |  | 
O=C(N[C@H]1CC[C@@]2(O)[C@H]3Cc4ccc(O)c5c4[C@@]2(CCN3CC2CC2)[C@H]1O5)c1ccoc1 | Active | 9.30 | 7.54 | 8.12 |  | 8.67 |  |  |  |  |  | 
O=C(N[C@@H]1CC[C@@]2(O)[C@H]3Cc4ccc(O)c5c4[C@@]2(CCN3CC2CC2)[C@H]1O5)c1ccco1 | inactive | 9.52 | 7.07 | 9.01 | Active | 8.89 |  | 7.45 | 8.20 |  |  | 
O=C(N[C@H]1CC[C@@]2(O)[C@H]3Cc4ccc(O)c5c4[C@@]2(CCN3CC2CC2)[C@H]1O5)c1cc[nH]c1 | inactive | 8.88 | 7.39 | 8.66 | inactive | 8.56 |  |  |  |  |  | 
O=C(Cc1ccsc1)N[C@@H]1CC[C@@]2(O)[C@H]3Cc4ccc(O)c5c4[C@@]2(CCN3CC2CC2)[C@H]1O5 | inactive | 9.70 | 7.44 | 8.49 | inactive | 8.88 |  |  |  |  |  | 
O=C(Cc1ccc[nH]1)N[C@H]1CC[C@@]2(O)[C@H]3Cc4ccc(O)c5c4[C@@]2(CCN3CC2CC2)[C@H]1O5 | inactive | 9.34 | 8.41 | 8.38 | inactive | 8.54 |  |  |  |  |  | 
O=C(CCc1ccoc1)N[C@H]1CC[C@@]2(O)[C@H]3Cc4ccc(O)c5c4[C@@]2(CCN3CC2CC2)[C@H]1O5 | inactive |  |  | 8.64 | inactive |  |  |  |  |  |  | 
O=C(N[C@@H]1CC[C@@]2(O)[C@H]3Cc4ccc(O)c5c4[C@@]2(CCN3CC2CC2)[C@H]1O5)c1cccs1 | inactive |  |  |  | Active |  |  |  |  |  |  | 
O=C(CCc1ccoc1)N[C@@H]1CC[C@@]2(O)[C@H]3Cc4ccc(O)c5c4[C@@]2(CCN3CC2CC2)[C@H]1O5 | inactive |  |  | 9.20 | inactive |  |  |  |  |  |  | 
O=C(CCc1cc[nH]c1)N[C@@H]1CC[C@@]2(O)[C@H]3Cc4ccc(O)c5c4[C@@]2(CCN3CC2CC2)[C@H]1O5 | inactive | 9.39 | 7.17 | 8.80 | inactive | 8.57 |  |  |  |  |  | 
O=C(N[C@@H]1CC[C@@]2(O)[C@H]3Cc4ccc(O)c5c4[C@@]2(CCN3CC2CC2)[C@H]1O5)c1cc[nH]c1 | Active | 9.44 | 6.97 | 8.69 |  | 8.35 |  |  |  |  |  | 
O=C(Cc1ccco1)N[C@@H]1CC[C@@]2(O)[C@H]3Cc4ccc(O)c5c4[C@@]2(CCN3CC2CC2)[C@H]1O5 | inactive | 9.64 | 7.34 | 9.01 | Active | 8.47 |  | 7.37 | 7.88 |  |  | 

SMILES | Activity (Mus musculus [1]) | pKi (Mu-type opioid receptor [2]) | pKi [3] | pEC50 (Mu-type opioid receptor [4]) | Activity (Mus musculus [5]) | pKi [6] | solubility [7] | pEC50 [8] | pEC50 [9] | Activity (Mus musculus [10]) | Activity (Mus musculus [11]) | Activity (Mus musculus [12])
O=C(CCc1ccsc1)N[C@H]1CC[C@@]2(O)[C@H]3Cc4ccc(O)c5c4[C@@]2(CCN3CC2CC2)[C@H]1O5 | inactive |  |  |  | inactive |  |  |  |  |  |  | 
O=C(N[C@H]1CC[C@@]2(O)[C@H]3Cc4ccc(O)c5c4[C@@]2(CCN3CC2CC2)[C@H]1O5)c1ccc[nH]1 | inactive |  |  |  | Active |  |  |  |  |  |  | 
O=C(Cc1ccc[nH]1)N[C@@H]1CC[C@@]2(O)[C@H]3Cc4ccc(O)c5c4[C@@]2(CCN3CC2CC2)[C@H]1O5 | Active | 9.80 | 7.61 | 9.10 |  | 8.87 |  |  |  |  |  | 
O=C(CCc1ccco1)N[C@H]1CC[C@@]2(O)[C@H]3Cc4ccc(O)c5c4[C@@]2(CCN3CC2CC2)[C@H]1O5 | inactive |  |  |  | inactive |  |  |  |  |  |  | 
O=C(CCc1ccc[nH]1)N[C@@H]1CC[C@@]2(O)[C@H]3Cc4ccc(O)c5c4[C@@]2(CCN3CC2CC2)[C@H]1O5 | Active | 9.28 | 7.44 | 8.91 |  | 8.90 |  |  |  |  |  | 
O=C(Cc1cc[nH]c1)N[C@@H]1CC[C@@]2(O)[C@H]3Cc4ccc(O)c5c4[C@@]2(CCN3CC2CC2)[C@H]1O5 | inactive | 9.55 | 7.42 | 8.93 | inactive | 8.38 |  |  |  |  |  | 
O=C(Cc1cccs1)N[C@@H]1CC[C@@]2(O)[C@H]3Cc4ccc(O)c5c4[C@@]2(CCN3CC2CC2)[C@H]1O5 | inactive |  | 7.19 |  | inactive |  |  |  |  |  |  | 
O=C(Cc1cccs1)N[C@H]1CC[C@@]2(O)[C@H]3Cc4ccc(O)c5c4[C@@]2(CCN3CC2CC2)[C@H]1O5 | inactive |  |  |  | inactive |  |  |  |  |  |  | 
O=C(CCc1ccsc1)N[C@@H]1CC[C@@]2(O)[C@H]3Cc4ccc(O)c5c4[C@@]2(CCN3CC2CC2)[C@H]1O5 | Active |  |  |  |  |  |  |  |  |  |  | 
O=C(Cc1cc[nH]c1)N[C@H]1CC[C@@]2(O)[C@H]3Cc4ccc(O)c5c4[C@@]2(CCN3CC2CC2)[C@H]1O5 | inactive | 8.44 | 7.84 | 7.29 | inactive | 7.72 |  |  |  |  |  | 
O=C(N[C@H]1CC[C@@]2(O)[C@H]3Cc4ccc(O)c5c4[C@@]2(CCN3CC2CC2)[C@H]1O5)c1ccsc1 | inactive |  |  |  | Active |  |  |  |  | Active | Active | 
O=C(Cc1ccco1)N[C@H]1CC[C@@]2(O)[C@H]3Cc4ccc(O)c5c4[C@@]2(CCN3CC2CC2)[C@H]1O5 | inactive | 9.23 | 8.34 | 8.56 | Active | 8.18 |  | 8.21 | 7.07 |  |  | 
O=C(N[C@H]1CC[C@@]2(O)[C@H]3Cc4ccc(O)c5c4[C@@]2(CCN3CC2CC2)[C@H]1O5)c1cccs1 | inactive |  |  |  | Active |  |  |  |  | Active | Active | Active
O=C(Cc1ccoc1)N[C@@H]1CC[C@@]2(O)[C@H]3Cc4ccc(O)c5c4[C@@]2(CCN3CC2CC2)[C@H]1O5 | inactive | 9.66 | 7.14 | 9.04 | inactive | 8.43 |  |  |  |  |  | 
O=C(N[C@@H]1CC[C@@]2(O)[C@H]3Cc4ccc(O)c5c4[C@@]2(CCN3CC2CC2)[C@H]1O5)c1ccsc1 | inactive |  |  |  | Active |  |  |  |  |  |  | 
O=C(N[C@@H]1CC[C@@]2(O)[C@H]3Cc4ccc(O)c5c4[C@@]2(CCN3CC2CC2)[C@H]1O5)c1ccc[nH]1 | inactive |  |  |  | inactive |  |  |  |  |  |  | 
O=C(Cc1ccsc1)N[C@H]1CC[C@@]2(O)[C@H]3Cc4ccc(O)c5c4[C@@]2(CCN3CC2CC2)[C@H]1O5 | inactive | 9.64 | 7.40 | 8.92 | inactive | 9.19 |  |  |  |  |  | 
O=C(Cc1ccoc1)N[C@H]1CC[C@@]2(O)[C@H]3Cc4ccc(O)c5c4[C@@]2(CCN3CC2CC2)[C@H]1O5 | inactive | 9.38 | 8.43 | 8.08 | inactive | 8.19 |  |  |  |  |  | 
